Legend:
Japanese bulrush [1] = assay: Test Example 2: herbicidal activity, application during weed generation under submerged conditions (Table 17, symbol B); format: in vivo, Japanese bulrush (Schoenoplectus juncoides); settings: AAH 320 g/ha; application during weed generation, submerged conditions
In short: (§1)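 Mixed weed seedlings in alluvial soil under a 4 cm water layer, greenhouse-grown at 25–30° C. Compound given as a diluted emulsion into the floodwater at the 1–2 leaf stage; response graded after three weeks.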

wild oat [2] = assay: Test Example 4: herbicidal effect by soil treatment (Table 19, symbol I); format: in vivo, wild oat (Avena fatua); settings: amount of applied herbicide 320 g/ha
In short: (§2)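 Scoring uses the grading scale of an earlier test, three weeks post-application. Treatment consists of spraying a diluted emulsion formulation across the surface of sterilized diluvial soil in which seeds are buried near 1.5 cm deep; boxes are kept in a greenhouse between 25° C. and 30° C.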

windgrass = assay: Test Example 5: herbicidal effect by foliage application, plastic box (Table 20, symbol L); format: in vivo, windgrass (Apera spica-venti); settings: foliage application, 320 g/ha, three weeks after application
In short: (§3)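 Post-emergence foliar test in sterilized diluvial soil. Compound applied as water-diluted emulsion at a predetermined rate to 14-day-old plants; evaluation at three weeks.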

lambsquarters [3] = assay: Test Example 4: herbicidal effect by soil treatment (Table 19, symbol O); format: in vivo, lambsquarters (Chenopodium album); settings: amount of applied herbicide 320 g/ha
In short: as §2

Italian ryegrass [4] = assay: Test Example 4: herbicidal effect by soil treatment (Table 19, symbol K); format: in vivo, Italian ryegrass (Lolium multiflorum); settings: amount of applied herbicide 320 g/ha
In short: as §2

rice flat sedge = assay: Test Example 3: herbicidal effect by foliage application, Wagner pot (Table 18, symbol E); format: in vivo, rice flat sedge (Cyperus iria); settings: amount of applied herbicide 320 g/ha
In short: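 Plants were sown in alluvial soil held under 0.1–0.5 cm standing water and grown 14 days in a greenhouse at 25–30 °C. An emulsifiable formulation, water-diluted to the set dose, was then sprayed onto the foliage, and effects were scored three weeks later using previously defined criteria.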

lambsquarters [5] = assay: Test Example 5: herbicidal effect by foliage application, plastic box (Table 20, symbol O); format: in vivo, lambsquarters (Chenopodium album); settings: foliage application, 320 g/ha, three weeks after application
In short: as §3

barnyard grass = assay: Test Example 5: herbicidal effect by foliage application, plastic box (Table 20, symbol H); format: in vivo, barnyard grass (Echinochloa crus-galli); settings: foliage application, 320 g/ha, three weeks after application
In short: as §3

oval-leafed pondweed = assay: Test Example 1: herbicidal activity, application before weed generation under submerged conditions (Table 16, symbol C); format: in vivo, oval-leafed pondweed (Monochoria vaginalis); settings: amount of applied herbicide 320 g/ha
In short: (§4)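 Alluvial soil was flooded to 4 cm depth, weed seeds were sown mixed and 2.5-leaf rice seedlings were transplanted. On sowing day, the compound's emulsion, diluted in water to a set dose, was applied to the water surface. Plants grew at 25–30 °C and were scored 0–5 after three weeks.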

persian speedwell = assay: Test Example 4: herbicidal effect by soil treatment (Table 19, symbol R); format: in vivo, Persian speedwell (Veronica persica); settings: amount of applied herbicide 320 g/ha
In short: as §2

velvetleaf [6] = assay: Test Example 4: herbicidal effect by soil treatment (Table 19, symbol M); format: in vivo, velvetleaf (Abutilon theophrasti); settings: amount of applied herbicide 320 g/ha
In short: as §2

late watergrass = assay: Test Example 2: herbicidal activity, application during weed generation under submerged conditions (Table 17, symbol A); format: in vivo, late watergrass (Echinochloa oryzicola); settings: AAH 320 g/ha; application during weed generation, submerged conditions
In short: as §1

Italian ryegrass [7] = assay: Test Example 5: herbicidal effect by foliage application, plastic box (Table 20, symbol K); format: in vivo, Italian ryegrass (Lolium multiflorum); settings: foliage application, 320 g/ha, three weeks after application
In short: as §3

velvetleaf [8] = assay: Test Example 5: herbicidal effect by foliage application, plastic box (Table 20, symbol M); format: in vivo, velvetleaf (Abutilon theophrasti); settings: foliage application, 320 g/ha, three weeks after application
In short: as §3

Japanese bulrush [9] = assay: Test Example 1: herbicidal activity, application before weed generation under submerged conditions (Table 16, symbol B); format: in vivo, Japanese bulrush (Schoenoplectus juncoides); settings: amount of applied herbicide 320 g/ha
In short: as §4

wild oat [10] = assay: Test Example 5: herbicidal effect by foliage application, plastic box (Table 20, symbol I); format: in vivo, wild oat (Avena fatua); settings: foliage application, 320 g/ha, three weeks after application
In short: as §3

Compound | herbicidal effect rating, B: Japanese bulrush (Japanese bulrush [1]) | I: wild oat, herbicidal effect grade (wild oat [2]) | herbicidal effect on windgrass (L) (windgrass) | O: lambsquarters, herbicidal effect grade (lambsquarters [3]) | K: Italian ryegrass, herbicidal effect grade (Italian ryegrass [4]) | Herbicidal effect on E (rice flat sedge), foliage application (rice flat sedge) | herbicidal effect on lambsquarters (O) (lambsquarters [5]) | herbicidal effect on barnyard grass (H) (barnyard grass) | Herbicidal effect, C: oval-leafed pondweed (oval-leafed pondweed) | R: persian speedwell, herbicidal effect grade (persian speedwell) | M: velvetleaf, herbicidal effect grade (velvetleaf [6]) | herbicidal effect rating, A: late watergrass (late watergrass) | herbicidal effect on Italian ryegrass (K) (Italian ryegrass [7]) | herbicidal effect on velvetleaf (M) (velvetleaf [8]) | Herbicidal effect, B: Japanese bulrush (Japanese bulrush [9]) | herbicidal effect on wild oat (I) (wild oat [10])
Cc1ccc2oc(-c3ccc4c(c3)OCCO4)c(-c3c(O)c(C)nn(C)c3=O)c2c1 [9-012] | 4 (Herbicidal rate of 70% or more and less than 90%) | 0 (Herbicidal rate of 5% or less (almost no effect)) | 2 (Herbicidal rate of 20% or more and less than 40%) | 3 (Herbicidal rate of 40% or more and less than 70%) | 4 (Herbicidal rate of 70% or more and less than 90%) | 5 (Herbicidal rate of 90% or more (almost completely withered)) | 3 (Herbicidal rate of 40% or more and less than 70%) | 3 (Herbicidal rate of 40% or more and less than 70%) | 5 (Herbicidal rate of 90% or more (almost completely withered)) | 4 (Herbicidal rate of 70% or more and less than 90%) | 2 (Herbicidal rate of 20% or more and less than 40%) | 1 (Herbicidal rate of 5% or more and less than 20%) | 5 (Herbicidal rate of 90% or more (almost completely withered)) | 5 (Herbicidal rate of 90% or more (almost completely withered)) | 5 (Herbicidal rate of 90% or more (almost completely withered)) | 0 (Herbicidal rate of 5% or less (almost no effect))
CCCC(=O)Oc1c(C)nn(C)c(=O)c1-c1c(-c2ccc3c(c2)OCCO3)oc2ccc(C)cc12 [9-013] | 0 (Herbicidal rate of 5% or less (almost no effect)) | 0 (Herbicidal rate of 5% or less (almost no effect)) | 0 (Herbicidal rate of 5% or less (almost no effect)) | 0 (Herbicidal rate of 5% or less (almost no effect)) | 0 (Herbicidal rate of 5% or less (almost no effect)) | 3 (Herbicidal rate of 40% or more and less than 70%) | 3 (Herbicidal rate of 40% or more and less than 70%) | 0 (Herbicidal rate of 5% or less (almost no effect)) | 4 (Herbicidal rate of 70% or more and less than 90%) | 0 (Herbicidal rate of 5% or less (almost no effect)) | 2 (Herbicidal rate of 20% or more and less than 40%) | 0 (Herbicidal rate of 5% or less (almost no effect)) | 2 (Herbicidal rate of 20% or more and less than 40%) | 5 (Herbicidal rate of 90% or more (almost completely withered)) | 4 (Herbicidal rate of 70% or more and less than 90%) | 0 (Herbicidal rate of 5% or less (almost no effect))
Cc1nn(C)c(=O)c(-c2c(-c3ccc(OC(C)C)cc3)oc3ccc(F)cc23)c1O [9-025] | 3 (Herbicidal rate of 40% or more and less than 70%) | 0 (Herbicidal rate of 5% or less (almost no effect)) | 0 (Herbicidal rate of 5% or less (almost no effect)) | 4 (Herbicidal rate of 70% or more and less than 90%) | 5 (Herbicidal rate of 90% or more (almost completely withered)) | 5 (Herbicidal rate of 90% or more (almost completely withered)) | 4 (Herbicidal rate of 70% or more and less than 90%) | 4 (Herbicidal rate of 70% or more and less than 90%) | 5 (Herbicidal rate of 90% or more (almost completely withered)) | 4 (Herbicidal rate of 70% or more and less than 90%) | 3 (Herbicidal rate of 40% or more and less than 70%) | 4 (Herbicidal rate of 70% or more and less than 90%) | 5 (Herbicidal rate of 90% or more (almost completely withered)) | 5 (Herbicidal rate of 90% or more (almost completely withered)) | 5 (Herbicidal rate of 90% or more (almost completely withered)) | 3 (Herbicidal rate of 40% or more and less than 70%)
Cc1nn(C)c(=O)c(-c2c(-c3ccc(OCC(C)C)cc3)oc3ccc(F)cc23)c1O [9-027] | 3 (Herbicidal rate of 40% or more and less than 70%) | 0 (Herbicidal rate of 5% or less (almost no effect)) | 5 (Herbicidal rate of 90% or more (almost completely withered)) | 5 (Herbicidal rate of 90% or more (almost completely withered)) | 4 (Herbicidal rate of 70% or more and less than 90%) | 5 (Herbicidal rate of 90% or more (almost completely withered)) | 5 (Herbicidal rate of 90% or more (almost completely withered)) | 5 (Herbicidal rate of 90% or more (almost completely withered)) | 5 (Herbicidal rate of 90% or more (almost completely withered)) | 5 (Herbicidal rate of 90% or more (almost completely withered)) | 5 (Herbicidal rate of 90% or more (almost completely withered)) | 4 (Herbicidal rate of 70% or more and less than 90%) | 5 (Herbicidal rate of 90% or more (almost completely withered)) | 5 (Herbicidal rate of 90% or more (almost completely withered)) | 5 (Herbicidal rate of 90% or more (almost completely withered)) | 4 (Herbicidal rate of 70% or more and less than 90%)
COCCOc1ccc(-c2oc3ccccc3c2-c2c(O)c(C)nn(C)c2=O)cc1 [Compound No. 8-007, 5-hydroxy-4-(2-(4-(2-methoxyethoxy)phenyl)benzofuran-3-yl)-2,6-dimethylpyridazin-3-(2H)-one] | 4 (Herbicidal rate of 70% or more and less than 90%) | 0 (Herbicidal rate of 5% or less (almost no effect)) | 0 (Herbicidal rate of 5% or less (almost no effect)) | 4 (Herbicidal rate of 70% or more and less than 90%) | 4 (Herbicidal rate of 70% or more and less than 90%) | 5 (Herbicidal rate of 90% or more (almost completely withered)) | 4 (Herbicidal rate of 70% or more and less than 90%) | 5 (Herbicidal rate of 90% or more (almost completely withered)) | 4 (Herbicidal rate of 70% or more and less than 90%) | 2 (Herbicidal rate of 20% or more and less than 40%) | 3 (Herbicidal rate of 40% or more and less than 70%) | 5 (Herbicidal rate of 90% or more (almost completely withered)) | 5 (Herbicidal rate of 90% or more (almost completely withered)) | 5 (Herbicidal rate of 90% or more (almost completely withered)) | 5 (Herbicidal rate of 90% or more (almost completely withered)) | 1 (Herbicidal rate of 5% or more and less than 20%)

From US20230085307A1, “PYRIDAZINONE COMPOUND AND HERBICIDE” (NISSAN CHEMICAL CORPORATION, priority 2019, published 2023)
